Measurements published in patent publication US8080529B2, “Macrolides with anti-inflammatory activity” (Glaxo Group Limited, priority 2005, dated 2011).
Like-named read-outs stand apart in the source and are kept apart here.

Columns and labels:
[1] = system: TNF-α; test: Inhibition of TNF-α production by stimulated human peripheral blood leukocytes in vitro; format: cell-based; conditions: Homo sapiens, Leukocyte, read-out: Percentage of inhibition of TNF-α production
Procedure, shortened: (§1)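 Cytokines in supernatants measured by sandwich ELISA after overnight stimulation (2 μg/mL LPS, 1 μg/mL PMA or 120 μg/mL zymosan) of healthy-donor leukocytes pretreated 2 h with 10 or 50 μM compound. Percent inhibition calculated relative to stimulated cells lacking compound.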

[2] = system: IL-1α; test: Inhibition of IL-1 production by stimulated human peripheral blood leukocytes in vitro; format: cell-based; conditions: Homo sapiens, Leukocyte, read-out: Percentage of inhibition of IL-1α production
[3] = system: IL-6; test: Inhibition of IL-6 production by stimulated human peripheral blood leukocytes in vitro; format: cell-based; conditions: Homo sapiens, Leukocyte, read-out: Percentage of inhibition of IL-6 production
Procedure, shortened: as §1

[4] = system: IL-8; test: Inhibition of IL-8 production by stimulated human peripheral blood leukocytes in vitro; format: cell-based; conditions: Homo sapiens, Leukocyte, read-out: Percentage of inhibition of IL-8 production
Procedure, shortened: as §1

[5] = system: human peripheral blood mononuclear cells (PBMC); test: Effects on human T-cell proliferation in vitro (3H-thymidine incorporation); format: cell-based; conditions: Homo sapiens, PBMC, read-out: Percentage of inhibition of proliferation of stimulated PBMC
Procedure, shortened: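 Proliferation of human peripheral blood mononuclear cells (PBMC) was assessed in the presence of test compounds. During the final 18 h of culture each well received 1 μCi of ^3H-thymidine. Cells were then collected onto a 96-well filter with a multiple cell harvester, and ^3H-thymidine incorporation was counted on a TopCount NXT to give percentage inhibition of proliferation.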

[6] = system: Hep G2; test: Cytotoxicity assay (MTT), Hep G2 cell line; format: cell-based; conditions: 24 h
Procedure, shortened: (§2)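 Hep G2 and A549 cells were cultured 24 h at 37° C in RPM medium with test compounds at 50 μM and 12.5 μM. MTT was added for 0.5-2 h and formazan read at 490 nm. Growth value calculated as OD490 treated/OD490 nontreated ×100.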

[7] = system: A549; test: Cytotoxicity assay (MTT), A549 cell line; format: cell-based; conditions: 24 h
Procedure, shortened: as §2

[8] = system: TNF-α; test: Lipopolysaccharide induced TNF-α production in Balb/cJ mice; format: in vivo; conditions: Mus musculus, ip, 1.5 h; 10 mg/kg intraperitoneally, 30 min before LPS; 90 min after LPS; read-out: % inhibition of TNF-α production (plasma)

| SMILES | inhibition at 10 µM ([1]; LPS-stimulated PBL) [%] | inhibition at 10 µM ([1]; PMA-stimulated PBL) [%] | inhibition at 10 µM ([1]; zymosan-stimulated PBL) [%] | inhibition at 50 µM ([1]; LPS-stimulated PBL) [%] | inhibition at 50 µM ([1]; PMA-stimulated PBL) [%] | inhibition at 50 µM ([1]; zymosan-stimulated PBL) [%] | inhibition at 10 µM ([2]; LPS-stimulated PBL) [%] | inhibition at 10 µM ([2]; PMA-stimulated PBL) [%] | inhibition at 10 µM ([2]; zymosan-stimulated PBL) [%] | inhibition at 50 µM ([2]; LPS-stimulated PBL) [%] | inhibition at 50 µM ([2]; PMA-stimulated PBL) [%] | inhibition at 50 µM ([2]; zymosan-stimulated PBL) [%] | inhibition at 10 µM ([3]; LPS-stimulated PBL) [%] | inhibition at 10 µM ([3]; PMA-stimulated PBL) [%] | inhibition at 10 µM ([3]; zymosan-stimulated PBL) [%] | inhibition at 50 µM ([3]; LPS-stimulated PBL) [%] | inhibition at 50 µM ([3]; PMA-stimulated PBL) [%] | inhibition at 50 µM ([3]; zymosan-stimulated PBL) [%] | inhibition at 10 µM ([4]; LPS-stimulated PBL) [%] | inhibition at 10 µM ([4]; PMA-stimulated PBL) [%] | also measured |
| --- | --- | --- | --- | --- | --- | --- | --- | --- | --- | --- | --- | --- | --- | --- | --- | --- | --- | --- | --- | --- | --- |
| CC[C@H]1OC(=O)[C@H](C)[C@@H](O[C@H]2C[C@@](C)(OC)[C@@H](OC(=O)CCN(C)CCN(CC)CC)[C@H](C)O2)[C@H](C)[C@@H](O[C@@H]2O[C@H](C)C[C@H](N(C)C)[C@H]2O)[C@](C)(OC)C[C@@H](C)C(=O)N[C@H](C)[C@@H](O)[C@]1(C)O [Example 21] | 0 | 8 | 5 | 10 | 75 | 39 | 14 | 31 | 58 | 54 | 69 | 86 | 1 | 17 | 22 | 22 | 63 | 50 | 0 | 6 | inhibition at 10 µM ([4]; zymosan-stimulated PBL): 0%; inhibition at 50 µM ([4]; LPS-stimulated PBL): 4%; inhibition at 50 µM ([4]; PMA-stimulated PBL): 23%; inhibition at 50 µM ([4]; zymosan-stimulated PBL): 13%; inhibition at 10 µM ([5]; PHA): 0%; inhibition at 50 µM ([5]; PHA): 80%; inhibition at 10 µM ([5]; PMA + iono.): 0%; inhibition at 50 µM ([5]; PMA + iono.): 74%; Percentage of inhibition of cell growth ([6]; 12.5 μM): 8%; Percentage of inhibition of cell growth ([6]; 50 μM): 4%; Percentage of inhibition of cell growth ([7]; 12.5 μM): 5%; Percentage of inhibition of cell growth ([7]; 50 μM): 4%; inhibition in vivo at 10 mg/kg [8]: 61% |
| CC[C@H]1OC(=O)[C@H](C)[C@@H](O[C@H]2C[C@@](C)(OC)[C@@H](OC(=O)CCN3CCCN(CCCN4CCCC4)CC3)[C@H](C)O2)[C@H](C)[C@@H](O[C@@H]2O[C@H](C)C[C@H](N(C)C)[C@H]2O)[C@](C)(OC)C[C@@H](C)C(=O)N[C@H](C)[C@@H](O)[C@]1(C)O [Example 34] | 55 | 86 | 65 | 96 | 100 | 100 | 69 | 86 | 77 | 82 | 100 | 99 | 28 | 66 | 66 | 91 | 95 | 99 | 21 | 33 | inhibition at 10 µM ([4]; zymosan-stimulated PBL): 32%; inhibition at 50 µM ([4]; LPS-stimulated PBL): 87%; inhibition at 50 µM ([4]; PMA-stimulated PBL): 76%; inhibition at 50 µM ([4]; zymosan-stimulated PBL): 81%; inhibition at 10 µM ([5]; PHA): 66%; inhibition at 50 µM ([5]; PHA): 99%; inhibition at 10 µM ([5]; PMA + iono.): 0%; inhibition at 50 µM ([5]; PMA + iono.): 87%; Percentage of inhibition of cell growth ([6]; 12.5 μM): 7%; Percentage of inhibition of cell growth ([6]; 50 μM): 1%; Percentage of inhibition of cell growth ([7]; 12.5 μM): 0%; Percentage of inhibition of cell growth ([7]; 50 μM): 1%; inhibition in vivo at 10 mg/kg [8]: 78% |
| CC[C@H]1OC(=O)[C@H](C)[C@@H](O[C@H]2C[C@@](C)(OC)[C@@H](OC(=O)CCN(CC)CC)[C@H](C)O2)[C@H](C)[C@@H](O[C@@H]2O[C@H](C)C[C@H](N(C)C)[C@H]2O)[C@](C)(O)C[C@@H](C)CN(C)[C@H](C)[C@@H](O)[C@]1(C)O [Example 48, 4″-O-(3-diethylamino-propionyl)-azithromycin] | 49 | 31 | 82 | 87 | 90 | 97 | 64 | 38 | 85 | 79 | 78 | 92 | 57 | 30 | 73 | 97 | 84 | 97 | 36 | 25 | inhibition at 10 µM ([4]; zymosan-stimulated PBL): 49%; inhibition at 50 µM ([4]; LPS-stimulated PBL): 85%; inhibition at 50 µM ([4]; PMA-stimulated PBL): 83%; inhibition at 50 µM ([4]; zymosan-stimulated PBL): 90%; inhibition at 10 µM ([5]; PHA): 93%; inhibition at 50 µM ([5]; PHA): 100%; inhibition at 10 µM ([5]; PMA + iono.): 81%; inhibition at 50 µM ([5]; PMA + iono.): 100%; Percentage of inhibition of cell growth ([6]; 12.5 μM): 0%; Percentage of inhibition of cell growth ([6]; 50 μM): 9%; Percentage of inhibition of cell growth ([7]; 12.5 μM): 0%; Percentage of inhibition of cell growth ([7]; 50 μM): 0%; inhibition in vivo at 10 mg/kg [8]: 52% |
| CC[C@H]1OC(=O)[C@H](C)C(O[C@H]2C[C@@](C)(OC)[C@@H](OC(=O)CCN(CC)CC)[C@H](C)O2)[C@H](C)[C@@H](O[C@@H]2O[C@H](C)C[C@H](N(C)C)[C@H]2O)[C@](C)(OC)C[C@@H](C)C(=O)[C@H](C)[C@H](O)[C@]1(C)O (stereo partly drawn) [Example 49, 4″-O-(3-Diethylamino-propionyl)-6-O-methylerithromycin A] | 69 | 37 | 70 | 91 | 86 | 93 | 84 | 35 | 76 | 86 | 84 | 25 | 70 | 76 | 76 | 99 | 86 | 97 | 44 | 0 | inhibition at 10 µM ([4]; zymosan-stimulated PBL): 15%; inhibition at 50 µM ([4]; LPS-stimulated PBL): 86%; inhibition at 50 µM ([4]; PMA-stimulated PBL): 95%; inhibition at 50 µM ([4]; zymosan-stimulated PBL): 54%; inhibition at 10 µM ([5]; PHA): 44%; inhibition at 50 µM ([5]; PHA): 99%; inhibition at 10 µM ([5]; PMA + iono.): 24%; inhibition at 50 µM ([5]; PMA + iono.): 100%; Percentage of inhibition of cell growth ([6]; 12.5 μM): 5%; Percentage of inhibition of cell growth ([6]; 50 μM): 26%; Percentage of inhibition of cell growth ([7]; 12.5 μM): 0%; Percentage of inhibition of cell growth ([7]; 50 μM): 6%; inhibition in vivo at 10 mg/kg [8]: 43% |
